Laboratory results reported in US6479435B1, “Diaryl ethers and processes for their preparation and herbicidal and desiccant compositions containing them” (ISK Americas Incorporated, priority 1997, dated 2002).

Experiments:
Format in all cases: in vivo
[1] = test system: soybean (Glycine max L., var. Pella 86, SOY); test: Pre-emerge greenhouse test, crop damage rating; settings: 14 days after application, rating scale 0-100
How it was run: (§1)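 Visual 0–100 injury rating (100 = all plants dead) taken 14 days after treatment. Rates of 125–1000 g ai/ha in acetone, 187 l/ha, were sprayed onto soil one day post-sowing; pots were surface-watered to incorporate, then bottom-watered.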

[2] = test system: common ragweed (Ambrosia artemisiifolia L., AMBEL); test: Post-emerge greenhouse herbicide test, phytotoxicity rating; settings: 14 days after application
How it was run: (§2)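 Scores use a 0 (no damage) to 100 (complete kill) scale, taken 14 days after a foliar spray. Acetone solutions with 0.25% v/v non-ionic surfactant were applied by track sprayer at 187 l/ha and 63-1000 g ai/ha to bottom-watered 2-3 leaf plants.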

[3] = test system: large crabgrass (Digitaria sanguinalis, DIGSA); test: Pre-emerge greenhouse herbicide test, phytotoxicity rating; settings: 14 days after application, rating scale 0-100
How it was run: as §1

[4] = test system: common ragweed (Ambrosia artemisiifolia L., AMBEL); test: as above; settings: 14 days after application, rating scale 0-100
How it was run: as §1

[5] = test system: velvetleaf (Abutilon theophrasti, ABUTH); test: as above; settings: 14 days after application, rating scale 0-100
How it was run: as §1

[6] = test system: Johnsongrass (Sorghum halepense, SORHA); test: as above; settings: 14 days after application, rating scale 0-100
How it was run: as §1

[7] = test system: green foxtail (Setaria viridis, SETVI); test: as above; settings: 14 days after application, rating scale 0-100
How it was run: as §1

[8] = test system: barnyardgrass (Echinochloa crusgalli, ECHCG); test: as above; settings: 14 days after application, rating scale 0-100
How it was run: as §1

[9] = test system: sicklepod (Cassia obtusifolia, CASOB); test: as above; settings: 14 days after application, rating scale 0-100
How it was run: as §1

[10] = test system: redroot pigweed (Amaranthus retroflexus, AMARE); test: as above; settings: 14 days after application, rating scale 0-100
How it was run: as §1

[11] = test system: lambsquarters (Chenopodium album, CHEAL); test: as above; settings: 14 days after application, rating scale 0-100
How it was run: as §1

[12] = test system: ivyleaf morningglory (Ipomoea hederacea, IPOHE); test: as above; settings: 14 days after application, rating scale 0-100
How it was run: as §1

[13] = test system: large crabgrass (Digitaria sanguinalis, DIGSA); test: Post-emerge greenhouse herbicide test, phytotoxicity rating; settings: 14 days after application
How it was run: as §2

[14] = test system: velvetleaf (Abutilon theophrasti, ABUTH); test: as above; settings: 14 days after application
How it was run: as §2

[15] = test system: Johnsongrass (Sorghum halepense, SORHA); test: as above; settings: 14 days after application
How it was run: as §2

[16] = test system: green foxtail (Setaria viridis, SETVI); test: as above; settings: 14 days after application
How it was run: as §2

[17] = test system: barnyardgrass (Echinochloa crusgalli, ECHCG); test: as above; settings: 14 days after application
How it was run: as §2

[18] = test system: sicklepod (Cassia obtusifolia, CASOB); test: as above; settings: 14 days after application
How it was run: as §2

[19] = test system: redroot pigweed (Amaranthus retroflexus, AMARE); test: as above; settings: 14 days after application
How it was run: as §2

[20] = test system: lambsquarters (Chenopodium album, CHEAL); test: as above; settings: 14 days after application
How it was run: as §2

[21] = test system: ivyleaf morningglory (Ipomoea hederacea, IPOHE); test: as above; settings: 14 days after application
How it was run: as §2

[22] = test system: field corn (Zea mays L., var. Dekalb 535, CORN); test: Post-emerge greenhouse test, crop damage rating; settings: 14 days after application
How it was run: as §2

[23] = test system: upland rice (Oryza sp., var.Tebonnet, RICE); test: Post-emerge greenhouse test, crop damage rating; settings: 14 days after application
How it was run: as §2

[24] = test system: soybean (Glycine max L., var. Pella 86, SOY); test: Post-emerge greenhouse test, crop damage rating; settings: 14 days after application
How it was run: as §2

[25] = test system: field corn (Zea mays L., var. Dekalb 535, CORN); test: Pre-emerge greenhouse test, crop damage rating; settings: 14 days after application, rating scale 0-100
How it was run: as §1

[26] = test system: upland rice (Oryza sp., var.Tebonnet, RICE); test: Pre-emerge greenhouse test, crop damage rating; settings: 14 days after application, rating scale 0-100
How it was run: as §1

Nc1ccc(Oc2cc(-n3c(=O)n4n(c3=S)CCCC4)c(F)cc2Cl)c(C(F)(F)F)c1 [Compound 8-15]
40: phytotoxicity rating AMARE ([10]; 500 g ai/ha) | AMARE phytotoxicity rating (0-100) ([19]; 63 g al/ha) | IPOHE phytotoxicity rating (0-100) ([21]; 63 g al/ha)
90: CHEAL phytotoxicity rating (0-100) ([20]; 500 g al/ha)
80: ABUTH phytotoxicity rating (0-100) ([14]; 500 g al/ha) | IPOHE phytotoxicity rating (0-100) ([21]; 500 g al/ha)
100: phytotoxicity rating CHEAL ([11]; 500 g ai/ha)
20: SOY crop damage rating (0-100) ([24]; 63 g al/ha)
70: AMBEL phytotoxicity rating (0-100) ([2]; 500 g al/ha) | AMARE phytotoxicity rating (0-100) ([19]; 500 g al/ha) | CHEAL phytotoxicity rating (0-100) ([20]; 63 g al/ha)
50: phytotoxicity rating ABUTH ([5]; 500 g ai/ha) | ABUTH phytotoxicity rating (0-100) ([14]; 63 g al/ha) | CASOB phytotoxicity rating (0-100) ([18]; 500 g al/ha) | SOY crop damage rating (0-100) ([24]; 500 g al/ha)
0: crop damage rating SOY ([1]; 125 g ai/ha) | crop damage rating SOY ([1]; 500 g ai/ha) | phytotoxicity rating DIGSA ([3]; 125 g ai/ha) | phytotoxicity rating DIGSA ([3]; 500 g ai/ha) | phytotoxicity rating AMBEL ([4]; 125 g ai/ha) | phytotoxicity rating AMBEL ([4]; 500 g ai/ha) | phytotoxicity rating ABUTH ([5]; 125 g ai/ha) | phytotoxicity rating SORHA ([6]; 125 g ai/ha) | phytotoxicity rating SORHA ([6]; 500 g ai/ha) | phytotoxicity rating SETVI ([7]; 125 g ai/ha) | phytotoxicity rating SETVI ([7]; 500 g ai/ha) | phytotoxicity rating ECHCG ([8]; 125 g ai/ha) | phytotoxicity rating ECHCG ([8]; 500 g ai/ha) | phytotoxicity rating CASOB ([9]; 125 g ai/ha) | phytotoxicity rating CASOB ([9]; 500 g ai/ha) | phytotoxicity rating AMARE ([10]; 125 g ai/ha) | phytotoxicity rating CHEAL ([11]; 125 g ai/ha) | phytotoxicity rating IPOHE ([12]; 125 g ai/ha) | phytotoxicity rating IPOHE ([12]; 500 g ai/ha) | DIGSA phytotoxicity rating (0-100) ([13]; 63 g al/ha) | DIGSA phytotoxicity rating (0-100) ([13]; 500 g al/ha) | SORHA phytotoxicity rating (0-100) ([15]; 63 g al/ha) | SORHA phytotoxicity rating (0-100) ([15]; 500 g al/ha) | SETVI phytotoxicity rating (0-100) ([16]; 63 g al/ha) | SETVI phytotoxicity rating (0-100) ([16]; 500 g al/ha) | ECHCG phytotoxicity rating (0-100) ([17]; 63 g al/ha) | ECHCG phytotoxicity rating (0-100) ([17]; 500 g al/ha) | CASOB phytotoxicity rating (0-100) ([18]; 63 g al/ha) | CORN crop damage rating (0-100) ([22]; 63 g al/ha) | CORN crop damage rating (0-100) ([22]; 500 g al/ha) | RICE crop damage rating (0-100) ([23]; 63 g al/ha) | RICE crop damage rating (0-100) ([23]; 500 g al/ha) | crop damage rating CORN ([25]; 125 g ai/ha) | crop damage rating CORN ([25]; 500 g ai/ha) | crop damage rating RICE ([26]; 125 g ai/ha) | crop damage rating RICE ([26]; 500 g ai/ha)
30: AMBEL phytotoxicity rating (0-100) ([2]; 63 g al/ha)

Cc1nsc(Oc2cc(-n3nnn(CCCF)c3=O)c(F)cc2Cl)c1[N+](=O)[O-] [Compound 6-17]
6: crop damage rating RICE ([26]; 125 g ai/ha)
0: crop damage rating SOY ([1]; 125 g ai/ha) | crop damage rating SOY ([1]; 500 g ai/ha) | AMBEL phytotoxicity rating (0-100) ([2]; 63 g al/ha) | AMBEL phytotoxicity rating (0-100) ([2]; 500 g al/ha) | phytotoxicity rating DIGSA ([3]; 125 g ai/ha) | phytotoxicity rating DIGSA ([3]; 500 g ai/ha) | phytotoxicity rating AMBEL ([4]; 125 g ai/ha) | phytotoxicity rating AMBEL ([4]; 500 g ai/ha) | phytotoxicity rating ABUTH ([5]; 125 g ai/ha) | phytotoxicity rating ABUTH ([5]; 500 g ai/ha) | phytotoxicity rating SORHA ([6]; 125 g ai/ha) | phytotoxicity rating SORHA ([6]; 500 g ai/ha) | phytotoxicity rating SETVI ([7]; 125 g ai/ha) | phytotoxicity rating SETVI ([7]; 500 g ai/ha) | phytotoxicity rating ECHCG ([8]; 125 g ai/ha) | phytotoxicity rating ECHCG ([8]; 500 g ai/ha) | phytotoxicity rating CASOB ([9]; 125 g ai/ha) | phytotoxicity rating CASOB ([9]; 500 g ai/ha) | phytotoxicity rating AMARE ([10]; 125 g ai/ha) | phytotoxicity rating AMARE ([10]; 500 g ai/ha) | phytotoxicity rating CHEAL ([11]; 125 g ai/ha) | phytotoxicity rating CHEAL ([11]; 500 g ai/ha) | phytotoxicity rating IPOHE ([12]; 125 g ai/ha) | phytotoxicity rating IPOHE ([12]; 500 g ai/ha) | DIGSA phytotoxicity rating (0-100) ([13]; 63 g al/ha) | DIGSA phytotoxicity rating (0-100) ([13]; 500 g al/ha) | ABUTH phytotoxicity rating (0-100) ([14]; 63 g al/ha) | ABUTH phytotoxicity rating (0-100) ([14]; 500 g al/ha) | SORHA phytotoxicity rating (0-100) ([15]; 63 g al/ha) | SORHA phytotoxicity rating (0-100) ([15]; 500 g al/ha) | SETVI phytotoxicity rating (0-100) ([16]; 63 g al/ha) | SETVI phytotoxicity rating (0-100) ([16]; 500 g al/ha) | ECHCG phytotoxicity rating (0-100) ([17]; 63 g al/ha) | ECHCG phytotoxicity rating (0-100) ([17]; 500 g al/ha) | CASOB phytotoxicity rating (0-100) ([18]; 63 g al/ha) | CASOB phytotoxicity rating (0-100) ([18]; 500 g al/ha) | AMARE phytotoxicity rating (0-100) ([19]; 63 g al/ha) | AMARE phytotoxicity rating (0-100) ([19]; 500 g al/ha) | CHEAL phytotoxicity rating (0-100) ([20]; 63 g al/ha) | CHEAL phytotoxicity rating (0-100) ([20]; 500 g al/ha) | IPOHE phytotoxicity rating (0-100) ([21]; 63 g al/ha) | IPOHE phytotoxicity rating (0-100) ([21]; 500 g al/ha) | CORN crop damage rating (0-100) ([22]; 63 g al/ha) | CORN crop damage rating (0-100) ([22]; 500 g al/ha) | RICE crop damage rating (0-100) ([23]; 63 g al/ha) | RICE crop damage rating (0-100) ([23]; 500 g al/ha) | SOY crop damage rating (0-100) ([24]; 63 g al/ha) | SOY crop damage rating (0-100) ([24]; 500 g al/ha) | crop damage rating CORN ([25]; 125 g ai/ha) | crop damage rating CORN ([25]; 500 g ai/ha) | crop damage rating RICE ([26]; 500 g ai/ha)
